Laboratory results: US20250352541A1, “THERAPEUTIC FOR CANCER REFRACTORY TO IMMUNE CHECKPOINT INHIBITOR” (Sumitomo Pharma Co., Ltd., priority 2022, published 2025)

Assays:
CHK1 = CHK1 (Homo sapiens (Human), UniProt O14757); assay: CHK1 inhibitory activity test (IMAP TR-FRET)
ES-2 cells = assay: Cell growth suppression experiment; type: cell-based
Description: ES-2 cells were obtained from the American Type Culture Collection (ATCC). These cells were cultured at 37° C. in the presence of 5% CO2 in a 10% fetal bovine serum, 1% penicillin/streptomycin containing McCoy's 5a medium.
500 cells were seeded for each well in a 384-well plate, and the evaluated compound was added so that the final concentration of DMSO would be 0.1% to culture the cells for 2 days. After completion of the culture, the cell viability rate was calculated using CellTiter-Glo® 3D Reagent (Promega, G968B).
The results of cell growth suppression test on representative compounds of the present disclosure are listed in the following table based on the ranking of I, IT, III, IV, and V (1000 nM<I, 1000 nM>TI>300 nM, 300 nM>III>100 nM, 100 nMV>IV>30 nM, 30 nM>V).

Sequence of CHK1 (O14757 whole entry): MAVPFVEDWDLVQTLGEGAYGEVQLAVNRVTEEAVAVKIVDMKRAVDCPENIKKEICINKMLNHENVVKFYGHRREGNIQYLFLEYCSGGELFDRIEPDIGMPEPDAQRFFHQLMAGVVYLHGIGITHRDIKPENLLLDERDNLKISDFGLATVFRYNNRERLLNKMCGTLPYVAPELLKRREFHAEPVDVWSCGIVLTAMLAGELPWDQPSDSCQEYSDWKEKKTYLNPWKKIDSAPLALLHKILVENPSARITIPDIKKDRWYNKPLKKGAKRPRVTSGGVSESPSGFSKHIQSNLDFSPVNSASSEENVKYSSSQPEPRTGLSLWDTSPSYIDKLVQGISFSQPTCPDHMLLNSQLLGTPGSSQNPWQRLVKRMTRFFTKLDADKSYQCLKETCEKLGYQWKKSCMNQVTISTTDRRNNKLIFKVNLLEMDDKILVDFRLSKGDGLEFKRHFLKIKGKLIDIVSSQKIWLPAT

Row | SMILES | IC50 (CHK1) [pM] | effect of suppressing CHK1 activity compared with prexasertib (CHK1) | cell growth suppression effect compared with prexasertib (ES-2 cells)
1 | COc1cc(Cl)nc(OCCCN)c1-c1cc(Nc2cnc(C#N)cn2)n[nH]1 [Example 2, 5-({5-[2-(3-aminopropoxy)-6-chloro-4-methoxypyridin-3-yl]-1H-pyrazol-3-yl}amino)pyrazine-2-carbonitrile] | 220 | more potent effect of suppressing CHK1 activity than prexasertib | 
2 | COc1cncc(OCCCN)c1-c1cc(Nc2cnc(C#N)cn2)n[nH]1 [Example 3, 5-({5-[3-(3-aminopropoxy)-5-methoxypyridin-4-yl]-1H-pyrazol-3-yl}amino)pyrazine-2-carbonitrile] | 220 | more potent effect of suppressing CHK1 activity than prexasertib | excellent cell growth suppression effect that is equivalent to that of prexasertib
3 | COc1nccc(OCCCN)c1-c1cc(Nc2cnc(C#N)cn2)n[nH]1 [Example 4, 5-({5-[4-(3-aminopropoxy)-2-methoxypyridin-3-yl]-1H-pyrazol-3-yl}amino)pyrazine-2-carbonitrile] | 230 | more potent effect of suppressing CHK1 activity than prexasertib | excellent cell growth suppression effect that is equivalent to that of prexasertib
4 | COc1nccc(OCC2(C)CNC2)c1-c1cc(Nc2cnc(C#N)cn2)n[nH]1 [Example 6, 5-[(5-{2-methoxy-4-[(3-methylazetidin-3-yl)methoxy]pyridin-3-yl}-1H-pyrazol-3-yl)amino]pyrazine-2-carbonitrile] | 270 | more potent effect of suppressing CHK1 activity than prexasertib | excellent cell growth suppression effect that is equivalent to that of prexasertib
5 | COc1nccc(OCC2(O)CNC2)c1-c1cc(Nc2cnc(C#N)cn2)n[nH]1 [Example 7, 5-[(5-{4-[(3-hydroxyazetidin-3-yl)methoxy]-2-methoxypyridin-3-yl}-1H-pyrazol-3-yl)amino]pyrazine-2-carbonitrile] | 210 | more potent effect of suppressing CHK1 activity than prexasertib | 
6 | COc1cncc(OCC[C@@H](C)N)c1-c1cc(Nc2cnc(C#N)cn2)n[nH]1 [Example 9, 5-[(5-{3-[(3R)-3-aminobutoxy]-5-methoxypyridin-4-yl}-1H-pyrazol-3-yl)amino]pyrazine-2-carbonitrile] | 240 | more potent effect of suppressing CHK1 activity than prexasertib | 
7 | COc1cncc(OCC[C@H](C)N)c1-c1cc(Nc2cnc(C#N)cn2)n[nH]1 [Example 10, 5-[(5-{3-[(3S)-3-aminobutoxy]-5-methoxypyridin-4-yl}-1H-pyrazol-3-yl)amino]pyrazine-2-carbonitrile] | 300 | more potent effect of suppressing CHK1 activity than prexasertib | 
8 | COc1cncc(OCC2(CN)CC2)c1-c1cc(Nc2cnc(C#N)cn2)n[nH]1 [Example 11, 5-{[5-(3-{[1-(aminomethyl)cyclopropyl]methoxy}-5-methoxypyridin-4-yl)-1H-pyrazol-3-yl]amino}pyrazine-2-carbonitrile] | 180 | more potent effect of suppressing CHK1 activity than prexasertib | excellent cell growth suppression effect that is equivalent to that of prexasertib
9 | COc1cncc(OC[C@@H](O)CN)c1-c1cc(Nc2cnc(C#N)cn2)n[nH]1 [Example 14, 5-[(5-{3-[(2S)-3-amino-2-hydroxypropoxy]-5-methoxypyridin-4-yl}-1H-pyrazol-3-yl)amino]pyrazine-2-carbonitrile] | 220 | more potent effect of suppressing CHK1 activity than prexasertib | 
10 | COc1ccnc(OCCCN)c1-c1cc(Nc2cnc(Cl)cn2)n[nH]1 [Example 15, N-{5-[2-(3-aminopropoxy)-4-methoxypyridin-3-yl]-1-H-pyrazol-3-yl}-5-chloropyrazin-2-amine] | 260 | more potent effect of suppressing CHK1 activity than prexasertib | excellent cell growth suppression effect that is equivalent to that of prexasertib
11 | COc1cncc(OCC2CNC2)c1-c1cc(Nc2cnc(C#N)cn2)n[nH]1 [Example 18, 5-({5-[3-(azetidin-3-yl)methoxy-5-methoxypyridin-4-yl]-1H-pyrazol-3-yl}amino)pyrazine-2-carbonitrile] | 510 | more potent effect of suppressing CHK1 activity than prexasertib | 
12 | COc1cncc(O[C@@H]2CCC[C@H](N)C2)c1-c1cc(Nc2cnc(C#N)cn2)n[nH]1 [Example 19, 5-{[5-(3-{[(1R,3S)-3-aminocyclohexyl]oxy}-5-methoxypyridin-4-yl)-1H-pyrazol-3-yl]amino}pyrazine-2-carbonitrile] | 260 | more potent effect of suppressing CHK1 activity than prexasertib | excellent cell growth suppression effect that is equivalent to that of prexasertib
13 | COc1cncc(OC[C@H]2CCNC2)c1-c1cc(Nc2cnc(C#N)cn2)n[nH]1 [Example 21, (S)-5-[(5-{3-methoxy-[5-(pyrrolidin-3-yl)methoxy]pyridin-4-yl}-1H-pyrazol-3-yl)amino]pyrazine-2-carbonitrile] | 290 | more potent effect of suppressing CHK1 activity than prexasertib | excellent cell growth suppression effect that is equivalent to that of prexasertib
14 | COc1ncnc(OCC2(CN)CC2)c1-c1cc(Nc2cnc(C#N)cn2)n[nH]1 [Example 23, 5-{[5-(4-{[1-(aminomethyl)cyclopropyl]methoxy}-6-methoxypyrimidin-5-yl)-1H-pyrazol-3-yl]amino}pyrazine-2-carbonitrile] | 790 |  | excellent cell growth suppression effect that is equivalent to that of prexasertib
15 | N#Cc1cnc(Nc2cc(-c3c(OCF)cncc3OCCCN)[nH]n2)cn1 [Example 24, 5-({5-[3-(3-aminopropoxy)-5-(fluoromethoxy)pyridin-4-yl]-1H-pyrazol-3-yl}amino)pyrazine-2-carbonitrile] | 300 | more potent effect of suppressing CHK1 activity than prexasertib | 
16 | COc1cncc(O[C@@H]2CC[C@@H](N)C2)c1-c1cc(Nc2cnc(C#N)cn2)n[nH]1 [Example 32, 5-{[5-(3-{[(1R,3R)-3-aminocyclopentyl]oxy}-5-methoxypyridin-4-yl)-1H-pyrazol-3-yl]amino}pyrazine-2-carbonitrile] |  |  | excellent cell growth suppression effect that is equivalent to that of prexasertib
17 | COc1cncc(O[C@H](C)C2(O)CNC2)c1-c1cc(Nc2cnc(C#N)cn2)n[nH]1 [Example 34, 5-[(5-{3-[(1R)-1-(3-hydroxyazetidin-3-yl)ethoxy]-5-methoxypyridin-4-yl}-1H-pyrazol-3-yl)amino]pyrazine-2-carbonitrile] | 1820 |  | 
